Reference: BigSolDB 2.1

COc1c(N2CCNC(C)C2)c(F)cc2c(=O)c(C(=O)O)cn(C3CC3)c12 (configuration not stated)
solubility (mole fraction)
Settings | 273.15 K | 278.15 K | 283.15 K | 288.15 K | 293.15 K | 298.15 K | 303.15 K | 308.15 K | 313.15 K | 318.15 K
in 1,4-dioxane | – | – | – | 0.000952 | 0.00111 | 0.00129 | 0.00149 | 0.00172 | 0.00198 | 0.00228
in 2-butanone | 0.00158 | 0.00186 | 0.00219 | 0.00257 | 0.003 | 0.00349 | 0.00405 | 0.00468 | 0.00539 | 0.0062
in DMF | 0.00259 | 0.00305 | 0.00359 | 0.00417 | 0.00486 | 0.00566 | 0.00653 | 0.00751 | 0.00864 | 0.00989
in acetone | 0.00081 | 0.000942 | 0.00111 | 0.0013 | 0.00152 | 0.00177 | 0.00204 | 0.00235 | 0.0027 | 0.00309
in acetonitrile | 0.0013 | 0.0015 | 0.00177 | 0.00208 | 0.00244 | 0.00281 | 0.00322 | 0.0037 | 0.00424 | 0.00485
in ethanol | 0.000261 | 0.000326 | 0.000403 | 0.000489 | 0.000585 | 0.000698 | 0.000829 | 0.000984 | 0.00116 | 0.00136
in ethyl acetate | 0.00323 | 0.00378 | 0.0044 | 0.00509 | 0.00588 | 0.00679 | 0.00778 | 0.00893 | 0.0102 | 0.0117
in isopropanol | 0.000123 | 0.000158 | 0.000204 | 0.000254 | 0.000322 | 0.000401 | 0.000498 | 0.000613 | 0.000751 | 0.000912
in methanol | 0.00019 | 0.000232 | 0.000294 | 0.00036 | 0.000438 | 0.000531 | 0.000637 | 0.000752 | 0.000902 | 0.00107
in n-butanol | 0.00105 | 0.00122 | 0.00143 | 0.00169 | 0.00195 | 0.00225 | 0.0026 | 0.00299 | 0.00344 | 0.00395
in n-propanol | 0.000364 | 0.000445 | 0.000545 | 0.000655 | 0.000778 | 0.000922 | 0.00109 | 0.00127 | 0.00149 | 0.00173
in toluene | 5.9e-05 | 8.1e-05 | 0.000109 | 0.000146 | 0.000199 | 0.000261 | 0.000344 | 0.000446 | 0.000577 | 0.000742
